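48-hour exposure; five concentrations; linearly interpolated endpoints. The concentration for 50% growth inhibition is given as GI50. Definition used: TGI = concentration required for complete inhibition of growth.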
Experiments:
Test in all cases: NCI tumour cell line growth inhibition, 48 h
[1] = tested on: MDA-MB-435
[2] = tested on: NCI/ADR-RES ovarian
[3] = tested on: PC-3 prostate
[4] = tested on: KM12 colon
[5] = tested on: NCI-H23 lung
[6] = tested on: UACC-257 melanoma
[7] = tested on: SN12C renal
[8] = tested on: TK-10 renal
[9] = tested on: HCC-2998 colon
[10] = tested on: A549 NSCLC
[11] = tested on: HL-60(TB) leukemia
[12] = tested on: HOP-62 NSCLC
[13] = tested on: 786-0 renal
[14] = tested on: SNB-75 CNS
[15] = tested on: LOX IMVI melanoma
[16] = tested on: SR leukemia
[17] = tested on: MALME-3M melanoma
[18] = tested on: OVCAR-4 ovarian
[19] = tested on: M14 melanoma
[20] = tested on: SF-295 CNS
[21] = tested on: NCI-H522 lung
[22] = tested on: MDA-MB-231 breast
[23] = tested on: RPMI-8226 leukemia
[24] = tested on: SW-620 colon
[25] = tested on: HCT-15 colon
[26] = tested on: SF-539 CNS
[27] = tested on: NCI-H460 lung
[28] = tested on: RXF 393 renal
[29] = tested on: UO-31 renal
[30] = tested on: SK-OV-3 ovarian
[31] = tested on: EKVX NSCLC
[32] = tested on: UACC-62 melanoma
[33] = tested on: HS 578T breast
[34] = tested on: OVCAR-8 ovarian
[35] = tested on: OVCAR-3 ovarian
[36] = tested on: SK-MEL-5 melanoma
[37] = tested on: CAKI-1 renal
[38] = tested on: MOLT-4 leukemia
[39] = tested on: ACHN renal
[40] = tested on: U251 CNS
[41] = tested on: COLO 205 colon
[42] = tested on: NCI-H226 lung
[43] = tested on: MCF7 breast
[44] = tested on: BT-549 breast
[45] = tested on: OVCAR-5 ovarian
[46] = tested on: SK-MEL-28 melanoma
[47] = tested on: SK-MEL-2 melanoma
[48] = tested on: HOP-92 NSCLC
[49] = tested on: A498 renal
[50] = tested on: SNB-19 CNS
[51] = tested on: SF-268 CNS
[52] = tested on: IGROV1 ovarian
[53] = tested on: HT29 colon
[54] = tested on: T-47D breast
[55] = tested on: DU-145 prostate
[56] = tested on: CCRF-CEM leukemia

`C=C(CNCCO)[C@@H]1CC[C@]2(CO)CC[C@]3(C)[C@H](CC[C@@H]4[C@@]5(C)CCC(NCCc6ccc(O)cc6)C(C)(C)[C@@H]5CC[C@]43C)[C@@H]12` (some centres not stated) gave a GI50 [1] of 1510 nM, a TGI [1] of 2900 nM and a GI50 [2] of 2180 nM. It also gave a TGI [2] of 5100 nM, a GI50 [3] of 1380 nM and a TGI [3] of 3070 nM. It also gave a GI50 [4] of 1390 nM, a TGI [4] of 2920 nM and a GI50 [5] of 1770 nM. The TGI [5] was 3450 nM, the GI50 [6] was 1700 nM and the TGI [6] was 3080 nM. For the same compound, the GI50 [7] was 1690 nM, the TGI [7] was 3190 nM and the GI50 [8] was 1660 nM. It also gave a TGI [8] of 3100 nM, a GI50 [9] of 355 nM and a TGI [9] of 1430 nM. For the same compound, the GI50 [10] was 1430 nM, the TGI [10] was 2740 nM and the GI50 [11] was 2000 nM. For the same compound, the TGI [11] was 4080 nM, the GI50 [12] was 1590 nM and the TGI [12] was 2990 nM. It also gave a GI50 [13] of 202 nM, a TGI [13] of 523 nM and a GI50 [14] of 1310 nM. For the same compound, the TGI [14] was 2630 nM, the GI50 [15] was 1180 nM and the TGI [15] was 2630 nM. It also gave a GI50 [16] of 250 nM, a TGI [16] of 802 nM and a GI50 [17] of 1590 nM. The TGI [17] was 3130 nM, the GI50 [18] was 1440 nM and the TGI [18] was 3000 nM. The GI50 [19] was 187 nM, the TGI [19] was 398 nM and the GI50 [20] was 1510 nM. The TGI [20] was 2960 nM, the GI50 [21] was 1640 nM and the TGI [21] was 3130 nM. The GI50 [22] was 854 nM, the TGI [22] was 2170 nM and the GI50 [23] was 1020 nM. It also gave a TGI [23] of 3130 nM, a GI50 [24] of 468 nM and a TGI [24] of 1850 nM. The GI50 [25] was 1360 nM, the TGI [25] was 2820 nM and the GI50 [26] was 1520 nM. For the same compound, the TGI [26] was 2910 nM, the GI50 [27] was 1180 nM and the TGI [27] was 2630 nM. For the same compound, the GI50 [28] was 1080 nM, the TGI [28] was 2390 nM and the GI50 [29] was 1510 nM. The TGI [29] was 2940 nM, the GI50 [30] was 1700 nM and the TGI [30] was 3230 nM. For the same compound, the GI50 [31] was 1460 nM, the TGI [31] was 3110 nM and the GI50 [32] was 1750 nM. The TGI [32] was 3240 nM, the GI50 [33] was 1490 nM and the TGI [33] was 3700 nM. For the same compound, the GI50 [34] was 1460 nM, the TGI [34] was 2800 nM and the GI50 [35] was 1820 nM. It also gave a TGI [35] of 3730 nM, a GI50 [36] of 1690 nM and a TGI [36] of 3130 nM. It also gave a GI50 [37] of 1620 nM, a TGI [37] of 3330 nM and a GI50 [38] of 339 nM. The TGI [38] was 1360 nM, the GI50 [39] was 1690 nM and the TGI [39] was 3080 nM. It also gave a GI50 [40] of 278 nM, a TGI [40] of 717 nM and a GI50 [41] of 194 nM. It also gave a TGI [41] of 427 nM, a GI50 [42] of 1690 nM and a TGI [42] of 3480 nM. It also gave a GI50 [43] of 339 nM, a TGI [43] of 1480 nM and a GI50 [44] of 1550 nM. It also gave a TGI [44] of 3230 nM, a GI50 [45] of 1700 nM and a TGI [45] of 3290 nM. It also gave a GI50 [46] of 1600 nM, a TGI [46] of 3100 nM and a GI50 [47] of 1660 nM. It also gave a TGI [47] of 3180 nM, a GI50 [48] of 822 nM and a TGI [48] of 2290 nM. The GI50 [49] was 1460 nM, the TGI [49] was 2810 nM and the GI50 [50] was 1600 nM. For the same compound, the TGI [50] was 3030 nM, the GI50 [51] was 1560 nM and the TGI [51] was 3220 nM. For the same compound, the GI50 [52] was 1640 nM, the TGI [52] was 3550 nM and the GI50 [53] was 263 nM. For the same compound, the TGI [53] was 763 nM, the GI50 [54] was 1740 nM and the TGI [54] was 3550 nM. It also gave a GI50 [55] of 1600 nM, a TGI [55] of 3030 nM and a GI50 [56] of 500 nM. It also gave a TGI [56] of 2680 nM.

Reference: PubChem BioAssay (NCI)
